According to ChEMBL document CHEMBL1201862, “PubChem BioAssay data set” (2004):
The source made the active and inactive calls. Rule as the data show it, for most assays here: actives have a measured EC50 and inactives only a lower limit.

Tests used:
H9c2 = assay: cells; assay type: functional, cell-based; details: Rattus norvegicus, H9c2, Myocardium;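 also: confirmatory concentration-response retest of ultra-high-throughput screening hits for modulation of myocardial damage; cell death induced by hydrogen peroxide oxidative stress; compound pretreatment for 60 min then peroxide exposure for 2 h; potency is for protecting the cells against peroxide damage rather than for killing them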
[1] = inhibitors of intracellular T. cruzi replication, confirmation, NIH3T3 host cells, beta-gal luminescence (AID 2044); assay type: functional, cell-based;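 also: intracellular parasites grown in NIH/3T3 mouse fibroblasts as host cells; luminescent beta-galactosidase reporter signal from transgenic T. cruzi replicating inside host cells; inhibitors lower the luminescence signal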
[2] = cytotoxicity toward NIH3T3 fibroblasts, dose response, counter-screen, cell-based, ATP luminescence, mouse fibroblasts (AID 2010); assay type: functional;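 also: cells exposed to compound for about 90 hours before reading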
[3] = molecular target: T1, Heat shock factor protein 1 (Mus musculus, UniProt P38532); assay: HSF1 potentiators in luciferase reporter cells, confirmation, cell-based, NIH3T3, luminescence, dose retest (AID 435004); assay type: functional;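 also: stress induced by proteasome inhibitor MG132 added 30 min after compound; luciferase reporter driven by HSF1 response element in NIH3T3 cells; actives raise luminescence as potentiators of the MG132 stress response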
T1 sequence (P38532 whole entry): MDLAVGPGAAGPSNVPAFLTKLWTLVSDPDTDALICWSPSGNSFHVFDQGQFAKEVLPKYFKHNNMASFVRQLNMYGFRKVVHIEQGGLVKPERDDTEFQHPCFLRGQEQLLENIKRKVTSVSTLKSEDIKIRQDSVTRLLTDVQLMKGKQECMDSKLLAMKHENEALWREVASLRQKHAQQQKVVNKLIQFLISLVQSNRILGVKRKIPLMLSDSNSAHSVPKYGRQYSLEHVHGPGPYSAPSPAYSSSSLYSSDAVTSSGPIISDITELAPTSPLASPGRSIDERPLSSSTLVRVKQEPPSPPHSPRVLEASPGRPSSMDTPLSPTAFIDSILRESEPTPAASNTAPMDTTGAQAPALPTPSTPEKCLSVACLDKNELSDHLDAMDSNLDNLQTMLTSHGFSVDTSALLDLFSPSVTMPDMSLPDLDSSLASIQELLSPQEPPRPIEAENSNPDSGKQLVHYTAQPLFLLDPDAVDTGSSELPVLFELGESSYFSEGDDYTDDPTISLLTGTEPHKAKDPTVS

INS1 = assay: beta cell apoptosis inhibitors, cytokine rescue, dose response, luminescence, retest (AID 449756); assay type: functional, cell-based; details: Rattus norvegicus;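 also: cell death triggered by IL-1 beta plus TNF-alpha plus IFN-gamma mixture; protective hits raise ATP signal compared with cytokine alone wells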
[4] = HEp-2 cell cytotoxicity, dose response, cytotoxicity control for RSV inhibitor project, HTS (AID 2410); assay type: functional; details: human respiratory syncytial virus
[5] = Luminescence Cell-Based Dose Confirmation HTS to Identify Activators of 5'UTR Stem-Loop Driven Alpha-Synuclein mRNA Translation in H4 Neuroglioblastoma Cells. [Related pubchem assays: 1829 (Project Summary), 1814 (Primary HTS)]; assay type: functional
[6] = Luminescence Cell-Based Dose Response HTS to Identify Activators of Luciferase Translation or Activity in H4 […] Cells. [Related pubchem assays: 1829 (Project Summary), 1814 (Primary HTS)]; assay type: functional
H4 = assay: Luminescence Cell-Based Dose Response HTS to Identify Activators of 5'UTR Stem-Loop Driven Prion Protein mRNA Translation in H4 Neuroglioblastoma Cells. [Related pubchem assays: 1829 (Project Summary), 1814 (Primary HTS)]; assay type: functional; details: Homo sapiens
[7] = Luminescence Cell-Based Dose Retest to Confirm Inhibitors of Cancer Stem Cells. [Related pubchem assays (depositor defined):AID2717, AID2721]; assay type: functional; details: Homo sapiens

| SMILES | IC50 (H9c2) | EC50 [5] | EC50 [6] | EC50 (H4) | also measured |
| --- | --- | --- | --- | --- | --- |
| COc1ccc(-c2oc(=O)c3cc(OC)c(OC)cc3c2C#CCCO)cc1 | > 79 µM (inactive) | – | – | – | – |
| O=C(Cn1[nH]c(=O)c2ccccc2c1=O)OCC(=O)N1CCCc2ccccc21 | > 79 µM (inactive) | – | – | – | – |
| Cc1[nH]c2ccccc2c1CN1CCN(c2ccccn2)CC1 | – | – | – | – | EC50 [1]: 1.28 µM (active); EC50 [2]: > 60 µM (not active); EC50 [3]: 84 µM (active); AC50 (INS1): 4.21 µM (active) |
| CC1CN(c2nn3c(=O)c4ccccc4nc3c3ccccc23)CC(C)O1 (stereo unspecified) | > 79 µM (inactive) | – | – | – | – |
| COc1cc(C(=O)Sc2ccc(Cl)cc2)cc(OC)c1OC | – | – | – | – | CC50 [4]: 32.8 µM (active); EC50 [3]: 1.49 µM (active) |
| COc1cc(/C=C/C(=O)Nc2ccc3nc4n(c(=O)c3c2)CCCC4)cc(OC)c1OC | > 79 µM (inactive) | – | – | – | – |
| CC1(C)CC(=O)c2sc(NC(=O)C(C)(C)C)nc2C1 | – | 16 µM (active) | 1.31 µM (active) | 18.5 µM (active) | – |
| CC(C)c1ccc2[nH]c3c(c2c1)[C@@H]1CCN2C(=O)CCC[C@H](C3)[C@H]12 | – | 11.9 µM (active) | 53.6 µM (active) | > 120 µM (not active) | – |
| CCOC(=O)C1(Cc2cccc(OC)c2)CCCN(C(=O)c2cc(C)[nH]n2)C1 (stereo unspecified) | – | 12.5 µM (active) | 23.2 µM (active) | > 120 µM (not active) | – |
| Cn1c(=O)n(/N=C/c2ccccc2)c2ccccc21 | – | 17.3 µM (active) | 10.7 µM (active) | 31 µM (active) | – |
| O=S(=O)(c1cccc(F)c1)N1CCN(c2nc(-c3cccnc3)nc3ccccc23)CC1 | > 79 µM (inactive) | – | – | – | – |
| Cc1ccc(O)c(NC(=O)c2onc(C)c2Cl)c1 | – | – | – | – | EC50 [3]: 3.11 µM (active) |
| CC(=O)c1ccc(NC(=O)CSc2nc(=O)cc(N)n2-c2ccccc2)cc1 | – | 22.5 µM (active) | 12.3 µM (active) | 10.9 µM (active) | – |
| Cc1ccc(-c2cn(S(=O)(=O)c3ccc(C)cc3)nc2N)cc1 | – | – | – | – | EC50 [3]: > 260 µM (inactive) |
| O=C(c1ccccc1)c1ccc2nc(N3CCN(C(=O)c4ccco4)CC3)c3nncn3c2c1 | > 79 µM (inactive) | – | – | – | – |
| CN(C)N(Cc1ccccc1)C(=O)C(O)(c1ccccc1)c1ccccc1 | > 79 µM (inactive) | – | – | – | – |
| CCc1n[nH]c(SCc2ccc(OCC(C)C)cc2)n1 | – | 22.6 µM (active) | 10.2 µM (active) | > 120 µM (not active) | – |
| CC(C)(c1ccccc1)c1ccc(OCCCN2CCNCC2)cc1 | – | – | – | – | EC50 [1]: 2.42 µM (active); EC50 [2]: 15.1 µM (active); AC50 [7]: 200 nM (active); EC50 [3]: 60.7 µM (active) |
| COc1cc2c(cc1OC)C(COc1ccc3c(C)cc(=O)oc3c1)N(C(=O)c1ccco1)CC2 (stereo unspecified) | > 79 µM (inactive) | – | – | – | – |
| Cc1cc(C)nc(NC(=O)CSc2nc3ccccc3s2)n1 | – | 4.91 µM (active) | 48.4 µM (active) | 15.1 µM (active) | – |
| O=C1NC(c2ccccc2)=N/C1=C/c1ccco1 | – | 0.322 µM (active) | 55.5 µM (active) | 5.71 µM (active) | – |
| Cc1oc2ccc(NS(=O)(=O)c3ccc(C(C)(C)C)cc3)cc2c1C(=O)Nc1ccccc1 | – | – | – | – | EC50 [3]: > 260 µM (inactive) |
| O=C(NN=Cc1ccc(N2CCOCC2)s1)c1ccc([N+](=O)[O-])cc1 | 13.1 µM (active) | – | – | – | – |
